Measured values taken from ChEMBL document CHEMBL1201862, “PubChem BioAssay data set” (2004).
Calls of active or inactive are those of the source.

How the values were obtained:
[1] = target: Diphosphomevalonate decarboxylase (Streptococcus pneumoniae serotype 2 (strain D39 / NCTC 7466), UniProt Q9FD53); experiment: S. pneumoniae DPM-DC inhibition retest, confirmation, biochemical, cuvette format, coupled NADH fluorescence (AID 1028); assay type: functional
[2] = target: E3 ubiquitin-protein ligase Mdm2 (Homo sapiens, UniProt Q00987); experiment: enhancers of MDM2-luciferase reporter signal, concentration-effect titration, project on inhibitors of MDM2 ubiquitin ligase, cellular assay, luminescent readout, 384-well plate format (AID 1394); assay type: functional;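 also: MDM2 E3 inhibitors raise luminescence so EC50 is for signal enhancement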
[3] = target: NAD-dependent protein deacylase sirtuin-5, mitochondrial (Homo sapiens, UniProt Q9NXA8); experiment: SIRT5 desuccinylase inhibitors, dose response, biochemical, fluorescence imaging, cherry-pick, set 5 (AID 720591);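 also: desuccinylation of succinyl peptide AMC substrate read as fluorescence after trypsin release; potency of inhibitors that lower fluorescence and may act on trypsin instead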
[4] = target: T1, Carboxy-terminal domain RNA polymerase II polypeptide A small phosphatase 1 (Homo sapiens, UniProt Q9GZU7); experiment: inhibitors of CTDSP1, concentration-response testing, biochemical assay, absorbance-based, actives from ultra-high-throughput screening (AID 540297); assay type: functional
T1 sequence (Q9GZU7 whole entry): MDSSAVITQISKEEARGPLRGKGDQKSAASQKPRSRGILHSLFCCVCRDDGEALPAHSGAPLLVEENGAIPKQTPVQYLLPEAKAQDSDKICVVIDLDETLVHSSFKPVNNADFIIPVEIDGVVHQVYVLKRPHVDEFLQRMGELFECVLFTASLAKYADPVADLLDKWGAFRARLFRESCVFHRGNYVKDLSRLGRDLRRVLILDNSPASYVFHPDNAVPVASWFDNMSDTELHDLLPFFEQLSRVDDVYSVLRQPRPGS

[5] = target: T2, Low molecular weight phosphotyrosine protein phosphatase (Homo sapiens, UniProt P24666); assay type: functional; conditions: read-out: IC50_Mean;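 also: Dose-response confirmation assay measuring inhibition of LMPTP enzyme activity by fluorescence intensity read-out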
T2 sequence (P24666 whole entry): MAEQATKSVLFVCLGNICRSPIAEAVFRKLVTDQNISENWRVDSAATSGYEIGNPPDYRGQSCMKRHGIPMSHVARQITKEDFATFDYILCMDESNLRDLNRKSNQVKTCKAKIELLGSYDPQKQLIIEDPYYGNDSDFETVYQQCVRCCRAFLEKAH

[6] = P. falciparum late gametocyte killing, dose response, luminescence (AID 1117278); assay type: functional, cell-based;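 also: gametocytes exposed to compound for 24 hours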
[7] = Jurkat T cell cytotoxicity, dose response, cytotoxicity control for P. falciparum gametocyte viability project, luminescence (AID 1117277); assay type: functional, cell-based;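 also: potency reflects loss of cellular ATP meaning fewer viable cells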
[8] = cytotoxicity toward HCT116 cells – cell-based, CellTiter-Glo luminescence, IC50, dose response (AID 1117332); assay type: functional; conditions: HCT-116
[9] = cytotoxicity toward HT-29 cells – cell-based, CellTiter-Glo luminescence, IC50, dose response (AID 1117330); assay type: functional
[10] = cytotoxicity toward Colo320 cells – cell-based, CellTiter-Glo luminescence, IC50, dose response (AID 1117334); assay type: functional; conditions: COLO 320
[11] = RKO cell viability reduction, dose response, CellTiter-Glo luminescence (AID 1117322); assay type: functional
[12] = CellTiter-Glo luminescent dose response of DLD-1 viability loss (AID 1117352); assay type: functional
[13] = HCT116 cell viability decrease, GSK3B pretreatment – CellTiter-Glo, IC50, dose response (AID 1117339); assay type: functional; conditions: HCT-116
[14] = Concentration-dependent survival of SW480 colon cancer line, luminescence detection with CellTiter-Glo, half-maximal inhibitory concentration (AID 1117338); assay type: functional
[15] = SNU-C1 cell viability reduction, dose response, CellTiter-Glo luminescence (AID 1117323); assay type: functional, cell-based
[16] = ADAM10 inhibitors, peptide cleavage, dose response, biochemical, QFRET (AID 743254);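 also: ADAM10 enzyme with the DM2 quenched FRET peptide as substrate; EDANS fluorescence gain as the protease cuts the substrate; inhibitor potency against ADAM10 proteolytic activity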
[17] = target: Disintegrin and metalloproteinase domain-containing protein 17 (Homo sapiens, UniProt P78536); experiment: ADAM17 protease inhibitors, dose response, counter-screen for ADAM10 exosite inhibitor project, biochemical, quenched FRET substrate (AID 743253)
[18] = target: T3, Fatty acid synthase (Homo sapiens, UniProt P49327); experiment: FAS thioesterase domain inhibitors, dose response, biochemical, endpoint fluorescence intensity, uHTS hits (AID 624327); assay type: functional;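 also: fluorescence from hydrolysis of an O-methyl fluorescein acyl ester substrate by the enzyme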
[19] = target: T3, Fatty acid synthase; experiment: FAS thioesterase domain inhibitors, dose response, biochemical, kinetic fluorescence intensity (AID 624326); assay type: functional;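 also: rate of fluorescence rise from hydrolysis of a fluorogenic O-methyl fluorescein ester substrate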
[20] = inhibitors of Vif binding to APOBEC3G peptide, primary screen, biochemical, TR-FRET, GST-Vif 1-94, biotin-A3G peptide, dose response retest (AID 1117319); assay type: functional;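 also: TR-FRET signal of purified GST-Vif binding a biotinylated A3G peptide; inhibitors lower the FRET signal by blocking Vif and A3G binding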
[21] = Luminescence-based cell-based high throughput dose response assay to identify activators of the DAF-12 from the parasite S. stercoralis (ssDAF-12).; assay type: functional
[22] = target: T4, Oxysterols receptor LXR-beta (Homo sapiens, UniProt P55055); experiment: LXR agonists, Gal4 luciferase reporter, dose response, counter-screen for ssDAF-12 agonist project, cell-based, luminescence, HEK293, S. stercoralis campaign (AID 720737); assay type: functional; conditions: read-out: IC50 (the source's name)
T4 sequence (P55055 whole entry): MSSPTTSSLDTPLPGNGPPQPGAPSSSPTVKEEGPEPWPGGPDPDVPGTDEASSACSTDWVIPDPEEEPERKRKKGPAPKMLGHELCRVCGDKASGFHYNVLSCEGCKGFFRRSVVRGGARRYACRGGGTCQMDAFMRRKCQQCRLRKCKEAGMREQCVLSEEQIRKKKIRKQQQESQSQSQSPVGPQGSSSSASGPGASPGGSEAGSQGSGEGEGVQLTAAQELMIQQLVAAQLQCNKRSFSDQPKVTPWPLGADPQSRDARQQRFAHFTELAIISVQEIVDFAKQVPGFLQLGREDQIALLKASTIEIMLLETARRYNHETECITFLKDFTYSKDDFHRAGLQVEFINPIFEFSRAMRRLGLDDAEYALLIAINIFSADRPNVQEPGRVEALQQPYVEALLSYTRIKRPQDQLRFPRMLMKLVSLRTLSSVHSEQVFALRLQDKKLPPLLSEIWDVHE

[23] = system: H4; experiment: Luminescence Cell-Based Dose Response HTS to Identify Activators of 5'UTR Stem-Loop Driven Prion Protein mRNA Translation in H4 Neuroglioblastoma Cells. [Related pubchem assays: 1829 (Project Summary), 1814 (Primary HTS)]; assay type: functional; conditions: Homo sapiens
[24] = Luminescence Cell-Based Dose Response to Identify Activators of Luciferase Translation or Activity in H4-C Neuroglioblastoma Cells. [Related pubchem assays: 1829 (Project Summary), 1814 (Primary HTS)]; assay type: functional
[25] = Luminescence Cell-Based Dose Response HTS to Identify Activators of Luciferase Translation or Activity in H4 […] Cells. [Related pubchem assays: 1829 (Project Summary), 1814 (Primary HTS)]; assay type: functional
[26] = Luminescence Cell-Based Dose Response to Identify Activators of 5'UTR Stem-Loop Driven Prion Protein mRNA Translation in H4-C Neuroglioblastoma Cells. [Related pubchem assays: 1829 (Project Summary), 1814 (Primary HTS)]; assay type: functional
[27] = Luminescence Cell-Based Dose Confirmation to Identify Activators of 5'UTR Stem-Loop Driven Alpha-Synuclein mRNA Translation in H4 Neuroglioblastoma Cells. [Related pubchem assays: 1829 (Project Summary), 1814 (Primary HTS)]; assay type: functional
[28] = HepG2 cell cytotoxicity, dose response, cytotoxicity control, cherry-picked samples (AID 1159577); assay type: functional, cell-based
[29] = P. falciparum Dd2 growth inhibitors, dose response, SYBR Green, cherry-picked samples (AID 1159567); assay type: functional, cell-based
[30] = target: T5, Mannose-6-phosphate isomerase (Homo sapiens, UniProt P34949); experiment: human PMI inhibitors, high substrate, primary screen, biochemical, fluorescence intensity, high mannose 6-phosphate (AID 1220)
T5 sequence (P34949 whole entry): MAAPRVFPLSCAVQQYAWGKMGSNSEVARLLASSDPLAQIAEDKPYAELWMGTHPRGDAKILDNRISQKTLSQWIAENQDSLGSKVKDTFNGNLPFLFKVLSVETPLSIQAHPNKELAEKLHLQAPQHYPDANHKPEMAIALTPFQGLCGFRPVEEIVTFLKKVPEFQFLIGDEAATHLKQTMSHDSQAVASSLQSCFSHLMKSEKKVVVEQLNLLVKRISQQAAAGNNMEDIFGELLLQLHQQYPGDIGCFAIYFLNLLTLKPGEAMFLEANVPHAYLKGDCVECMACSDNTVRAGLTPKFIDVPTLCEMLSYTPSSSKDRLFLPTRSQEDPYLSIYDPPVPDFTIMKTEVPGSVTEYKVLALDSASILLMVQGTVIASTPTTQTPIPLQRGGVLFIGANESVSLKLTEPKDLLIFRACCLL

[31] = NIH:OVCAR-3 ovarian cancer cell cytotoxicity, dose response, PAX8 inhibitor project, plate reader, dry powder samples (AID 743044); assay type: functional, cell-based
[32] = target: Paired box protein Pax-8 (Homo sapiens, UniProt Q06710); experiment: inhibitors of PAX8-driven TPO luciferase reporter, dose response, RMG-I cells, cherry-pick (AID 687027); assay type: functional, cell-based;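 also: luciferase reporter driven by Pax8 target thyroperoxidase promoter measured by SteadyGlo luminescence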
[33] = A2780 ovarian cancer cell cytotoxicity, dose response, cytotoxicity control, plate reader, dry powder samples (AID 743046); assay type: functional, cell-based
[34] = system: Vero; experiment: host cell cytotoxicity of antiviral hits, dose response, cytotoxicity control for West Nile virus antiviral project, secondary assay (AID 1650); assay type: functional; conditions: Chlorocebus sabaeus
[35] = target: RNA-editing ligase 1, mitochondrial (Trypanosoma brucei brucei, UniProt P86926); experiment: TbREL1 ligase inhibitors, dose response, biochemical, fluorescence, Trypanosoma brucei (AID 1117295); assay type: functional
RNA-editing ligase 1, mitochondrial, sequence (P86926 whole entry): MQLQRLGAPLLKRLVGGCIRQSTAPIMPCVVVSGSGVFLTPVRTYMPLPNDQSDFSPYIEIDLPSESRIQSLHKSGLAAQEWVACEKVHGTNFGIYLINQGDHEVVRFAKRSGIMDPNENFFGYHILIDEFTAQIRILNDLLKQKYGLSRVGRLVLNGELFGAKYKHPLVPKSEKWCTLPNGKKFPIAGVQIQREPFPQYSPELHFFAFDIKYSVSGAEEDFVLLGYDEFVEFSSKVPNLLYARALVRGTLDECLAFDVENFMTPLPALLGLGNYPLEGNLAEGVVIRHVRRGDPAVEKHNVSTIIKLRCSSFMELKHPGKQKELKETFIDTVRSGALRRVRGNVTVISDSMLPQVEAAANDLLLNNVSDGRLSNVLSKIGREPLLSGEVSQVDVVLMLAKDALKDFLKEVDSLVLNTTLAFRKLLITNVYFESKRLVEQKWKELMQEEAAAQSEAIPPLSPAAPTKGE

Disintegrin and metalloproteinase domain-containing protein 17, sequence (P78536 whole entry, the tested form may be a part): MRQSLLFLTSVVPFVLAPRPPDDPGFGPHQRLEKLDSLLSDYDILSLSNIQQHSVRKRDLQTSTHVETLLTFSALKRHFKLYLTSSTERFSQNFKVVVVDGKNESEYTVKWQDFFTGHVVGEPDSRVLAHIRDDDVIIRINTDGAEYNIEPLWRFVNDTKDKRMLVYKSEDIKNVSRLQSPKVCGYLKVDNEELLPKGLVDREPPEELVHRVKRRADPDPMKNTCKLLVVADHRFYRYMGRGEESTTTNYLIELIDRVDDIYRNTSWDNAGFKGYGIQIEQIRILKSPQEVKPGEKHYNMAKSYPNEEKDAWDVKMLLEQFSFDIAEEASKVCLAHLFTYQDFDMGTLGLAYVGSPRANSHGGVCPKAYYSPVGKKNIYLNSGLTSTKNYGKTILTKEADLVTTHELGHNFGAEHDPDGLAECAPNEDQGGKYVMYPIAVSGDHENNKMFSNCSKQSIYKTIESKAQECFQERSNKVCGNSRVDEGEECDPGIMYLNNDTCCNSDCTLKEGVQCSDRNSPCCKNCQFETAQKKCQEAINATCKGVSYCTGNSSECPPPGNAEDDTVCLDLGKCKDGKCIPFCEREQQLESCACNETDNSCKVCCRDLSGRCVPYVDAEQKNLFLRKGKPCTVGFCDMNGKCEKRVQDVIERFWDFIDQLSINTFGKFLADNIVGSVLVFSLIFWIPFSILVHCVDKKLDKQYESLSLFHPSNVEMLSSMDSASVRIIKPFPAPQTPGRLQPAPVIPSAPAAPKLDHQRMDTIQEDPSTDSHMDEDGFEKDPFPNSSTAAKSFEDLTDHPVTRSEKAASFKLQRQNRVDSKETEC
Diphosphomevalonate decarboxylase, sequence (Q9FD53 whole entry): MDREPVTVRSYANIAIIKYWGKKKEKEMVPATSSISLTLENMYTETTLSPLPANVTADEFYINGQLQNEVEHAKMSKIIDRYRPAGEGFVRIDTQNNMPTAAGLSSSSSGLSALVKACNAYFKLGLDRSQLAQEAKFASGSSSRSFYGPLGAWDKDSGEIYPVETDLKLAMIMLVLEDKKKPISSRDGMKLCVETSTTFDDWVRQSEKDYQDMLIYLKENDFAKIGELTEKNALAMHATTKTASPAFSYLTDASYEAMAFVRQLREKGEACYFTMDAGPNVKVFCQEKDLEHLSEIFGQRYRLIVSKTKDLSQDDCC
NAD-dependent protein deacylase sirtuin-5, mitochondrial, sequence (Q9NXA8 whole entry, the tested form may be a part): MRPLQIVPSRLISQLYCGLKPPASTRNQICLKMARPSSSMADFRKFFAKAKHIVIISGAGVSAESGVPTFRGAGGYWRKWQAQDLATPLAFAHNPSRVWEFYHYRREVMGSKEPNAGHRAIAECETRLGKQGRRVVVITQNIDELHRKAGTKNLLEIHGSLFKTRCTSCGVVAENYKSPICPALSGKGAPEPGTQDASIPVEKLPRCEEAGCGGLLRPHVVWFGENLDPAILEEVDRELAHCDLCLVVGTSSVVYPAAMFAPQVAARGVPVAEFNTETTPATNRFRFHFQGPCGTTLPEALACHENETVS
E3 ubiquitin-protein ligase Mdm2, sequence (Q00987 whole entry): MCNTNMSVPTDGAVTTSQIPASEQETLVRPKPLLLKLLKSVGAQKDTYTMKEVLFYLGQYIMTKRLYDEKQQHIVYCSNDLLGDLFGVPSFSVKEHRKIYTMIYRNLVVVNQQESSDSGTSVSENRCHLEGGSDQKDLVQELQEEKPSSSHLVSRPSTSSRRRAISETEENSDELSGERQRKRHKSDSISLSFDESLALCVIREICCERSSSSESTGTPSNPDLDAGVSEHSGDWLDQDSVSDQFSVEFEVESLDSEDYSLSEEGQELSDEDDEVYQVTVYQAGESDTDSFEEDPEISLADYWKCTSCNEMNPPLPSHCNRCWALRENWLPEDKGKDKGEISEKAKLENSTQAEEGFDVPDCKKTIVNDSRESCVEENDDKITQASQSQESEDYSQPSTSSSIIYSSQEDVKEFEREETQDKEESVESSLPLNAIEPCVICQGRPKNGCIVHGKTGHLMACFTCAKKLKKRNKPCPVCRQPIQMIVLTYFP
T3 sequence (P49327 whole entry, the tested form may be a part): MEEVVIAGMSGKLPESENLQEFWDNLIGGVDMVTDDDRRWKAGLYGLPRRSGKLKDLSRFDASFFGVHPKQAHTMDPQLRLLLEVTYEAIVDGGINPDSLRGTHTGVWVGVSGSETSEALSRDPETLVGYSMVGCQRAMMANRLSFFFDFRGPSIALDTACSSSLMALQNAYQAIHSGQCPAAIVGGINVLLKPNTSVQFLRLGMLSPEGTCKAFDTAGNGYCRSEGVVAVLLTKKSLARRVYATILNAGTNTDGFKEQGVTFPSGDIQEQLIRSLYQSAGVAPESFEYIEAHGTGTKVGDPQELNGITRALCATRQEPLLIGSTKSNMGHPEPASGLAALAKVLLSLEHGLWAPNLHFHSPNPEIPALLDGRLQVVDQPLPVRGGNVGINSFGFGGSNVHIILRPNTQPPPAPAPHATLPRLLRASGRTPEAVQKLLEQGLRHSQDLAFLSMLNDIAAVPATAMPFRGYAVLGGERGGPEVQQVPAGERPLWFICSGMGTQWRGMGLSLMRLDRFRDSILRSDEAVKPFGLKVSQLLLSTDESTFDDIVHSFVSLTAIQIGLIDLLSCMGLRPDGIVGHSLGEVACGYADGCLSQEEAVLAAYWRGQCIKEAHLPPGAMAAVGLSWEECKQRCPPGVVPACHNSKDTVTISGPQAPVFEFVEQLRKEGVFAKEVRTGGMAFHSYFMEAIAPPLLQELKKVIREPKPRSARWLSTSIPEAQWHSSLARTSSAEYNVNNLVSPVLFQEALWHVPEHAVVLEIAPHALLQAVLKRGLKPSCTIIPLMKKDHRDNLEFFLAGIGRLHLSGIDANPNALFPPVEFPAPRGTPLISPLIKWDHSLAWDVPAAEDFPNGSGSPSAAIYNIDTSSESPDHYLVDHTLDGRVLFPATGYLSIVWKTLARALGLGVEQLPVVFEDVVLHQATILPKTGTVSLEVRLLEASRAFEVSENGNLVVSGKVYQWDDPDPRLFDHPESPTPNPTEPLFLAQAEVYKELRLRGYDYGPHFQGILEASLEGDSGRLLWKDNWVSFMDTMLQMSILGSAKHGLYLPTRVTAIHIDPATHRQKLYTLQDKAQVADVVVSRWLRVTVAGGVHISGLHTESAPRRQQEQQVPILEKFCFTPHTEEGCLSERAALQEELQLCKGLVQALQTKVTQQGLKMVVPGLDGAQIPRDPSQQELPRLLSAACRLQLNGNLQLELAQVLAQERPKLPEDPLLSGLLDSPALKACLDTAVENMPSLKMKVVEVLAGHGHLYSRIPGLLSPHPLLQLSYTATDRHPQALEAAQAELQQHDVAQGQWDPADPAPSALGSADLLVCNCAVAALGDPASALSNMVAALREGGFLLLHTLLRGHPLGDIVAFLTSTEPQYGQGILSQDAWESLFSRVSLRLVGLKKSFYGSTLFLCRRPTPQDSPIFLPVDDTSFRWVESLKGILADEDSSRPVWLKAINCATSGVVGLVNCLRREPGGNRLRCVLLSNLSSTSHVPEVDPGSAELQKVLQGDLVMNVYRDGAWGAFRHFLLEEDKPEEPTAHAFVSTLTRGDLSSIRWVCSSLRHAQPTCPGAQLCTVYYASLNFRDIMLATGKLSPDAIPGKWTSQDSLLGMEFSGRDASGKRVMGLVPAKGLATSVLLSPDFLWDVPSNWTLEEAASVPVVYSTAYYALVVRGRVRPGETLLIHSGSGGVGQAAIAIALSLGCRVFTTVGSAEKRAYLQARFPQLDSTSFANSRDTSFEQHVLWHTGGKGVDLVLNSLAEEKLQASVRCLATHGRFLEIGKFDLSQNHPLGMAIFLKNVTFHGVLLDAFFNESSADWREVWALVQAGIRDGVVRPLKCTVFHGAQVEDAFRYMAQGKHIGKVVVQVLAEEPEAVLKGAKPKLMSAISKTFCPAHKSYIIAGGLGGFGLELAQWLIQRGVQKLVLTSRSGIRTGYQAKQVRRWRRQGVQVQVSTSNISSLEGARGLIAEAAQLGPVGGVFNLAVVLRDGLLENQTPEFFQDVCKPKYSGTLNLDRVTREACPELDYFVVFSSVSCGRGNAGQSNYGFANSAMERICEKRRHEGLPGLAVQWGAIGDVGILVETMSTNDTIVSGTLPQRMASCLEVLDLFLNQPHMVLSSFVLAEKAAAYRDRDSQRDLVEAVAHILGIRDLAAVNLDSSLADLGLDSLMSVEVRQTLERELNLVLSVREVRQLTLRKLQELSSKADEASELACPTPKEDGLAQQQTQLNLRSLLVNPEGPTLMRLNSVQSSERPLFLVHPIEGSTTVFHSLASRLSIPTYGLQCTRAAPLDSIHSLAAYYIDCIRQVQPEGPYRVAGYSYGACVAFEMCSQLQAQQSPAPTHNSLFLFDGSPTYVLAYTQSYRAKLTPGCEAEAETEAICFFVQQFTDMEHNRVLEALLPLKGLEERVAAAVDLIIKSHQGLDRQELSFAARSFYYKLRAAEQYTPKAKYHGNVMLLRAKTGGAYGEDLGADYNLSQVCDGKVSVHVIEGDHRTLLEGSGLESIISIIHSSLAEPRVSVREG

SMILES: CN1CCN(C(=O)c2ccc(-n3sc4ccccc4c3=O)cc2)CC1
- IC50 [1]: 25.8 µM (active)

SMILES: Cc1cc(OC(=O)c2ccccc2)c([N+](=O)[O-])c(O)n1
- EC50 [2]: 0.01 µM (not active)

SMILES: O=C(NCCN1CCCC(O)C1)c1cc(COc2ccc(F)cc2Cl)on1 (stereo not given)
- AC50 [3]: > 30 µM (inactive)

SMILES: CCSc1nnc(NC(=O)CSc2sc3c(O)cc(=O)[nH]c3c2C#N)s1
- IC50 [4]: 3.21 µM (active)
- IC50 [5]: 49.5 µM (inactive)
- AC50 [3]: > 30 µM (inactive)

SMILES: CCCn1c(SCC(=O)c2cc(OC)ccc2OC)nnc1-c1ccco1
- IC50 [6]: > 109 µM (inactive)
- IC50 [7]: > 83.3 µM (inactive)

SMILES: CC(C)=CCCC(C)=CCCC(C)=CCCC=C(C)CCC=C(C)CCC=C(C)C
- IC50 [8]: > 20 µM (inactive)
- IC50 [9]: > 20 µM (inactive)
- IC50 [10]: > 20 µM (inactive)
- IC50 [11]: > 20 µM (inactive)
- IC50 [12]: > 20 µM (inactive)
- IC50 [13]: > 20 µM (inactive)
- IC50 [14]: > 20 µM (inactive)
- IC50 [15]: > 20 µM (inactive)

SMILES: Cc1ccc(C(=O)Nc2ccccc2C(=O)NCc2ccco2)cc1S(=O)(=O)N1CCCCC1
- IC50 [16]: > 69.5 µM (inactive)
- IC50 [17]: > 69.5 µM (inactive)

SMILES: O=C(NC1CC1)c1cccc(-n2sc3ccccc3c2=O)c1
- IC50 [1]: 20.4 µM (active)

SMILES: CCN(c1ccc(C)c(C)c1)S(=O)(=O)c1ccc2c(c1)CCN2C(=O)CCC(=O)O
- IC50 [6]: > 109 µM (inactive)
- IC50 [7]: > 83.3 µM (inactive)

SMILES: COc1ccccc1-c1cc(SC)c(C#N)c(=O)o1
- IC50 [18]: 15.3 µM (active)
- IC50 [19]: 10.9 µM (active)
- EC50 [2]: 11.1 µM (active)

SMILES: CC(=O)Cc1nsc(Nc2ccc3c(c2)OCCO3)n1
- IC50 [20]: > 100 µM (active)

SMILES: CNc1cncc(-c2ccc(OC)c(OC)c2)n1
- IC50 [21]: > 67.6 µM (inactive)
- EC50 [22]: > 67.6 µM (inactive)

SMILES: Cc1nn(-c2nc3ccccc3s2)c(N)c1-c1ccccc1
- EC50 [23]: > 120 µM (not active)
- EC50 [24]: 1.66 µM (active)
- EC50 [25]: < 0.1 µM (active)
- EC50 [26]: 0.346 µM (active)
- EC50 [27]: 0.277 µM (active)

SMILES: COc1ccc(C#Cc2ccc([C@@H]3[C@H](CO)N4CCCCN(C(=O)Cc5ccccc5)C[C@@H]34)cc2)cc1
- AC50 [28]: 7.73 µM (active)
- AC50 [29]: 1.42 µM (active)

SMILES: On1c2c(c3c4nonc4ccc31)CCCC2
- IC50 [30]: > 50 µM (not active)

SMILES: Cc1ccc(-c2cn3cccc(C)c3n2)cc1
- IC50 [21]: > 67.5 µM (inactive)
- EC50 [22]: > 67.5 µM (inactive)

SMILES: O=C(CSc1nnc(Cc2cccs2)n1-c1ccc(Cl)cc1)Nc1ccc(OCc2ccccc2)cc1
- IC50 [16]: > 69.5 µM (inactive)
- IC50 [17]: > 69.5 µM (inactive)

SMILES: CCN(CC)CCN/C=C1\C(=O)CNC1=O
- IC50 [20]: > 100 µM (active)

SMILES: Cc1ccc(S(=O)(=O)Nc2ccc3c(c2)C(=O)N([C@H](C)CO)C[C@@H](C)[C@@H](CN(C)Cc2ccc4c(c2)OCO4)OCCCC[C@@H](C)O3)cc1
- AC50 [31]: 29.1 µM (active)
- AC50 [32]: 21 µM (active)
- AC50 [33]: < 0.26 µM (active)

SMILES: Cc1ccccc1NC(=O)c1cc(C(=O)c2cc(Cl)ccc2O)cn(-c2ccccc2C)c1=O
- CC50 [34]: 64.8 µM (active)

SMILES: COCCCNC(=O)C1CCN(S(=O)(=O)c2ccc3[nH]c(=O)oc3c2)CC1
- IC50 [35]: 42.4 µM (inactive)
